Measurements reported in patent US20210145801A1, “THERAPY FOR PROTEIN MISFOLDING DISEASE” (WREN THERAPEUTICS LIMITED, priority 2018, published 2021).
Entries after “also recorded” stand apart in the source; their conditions may differ. Like-named read-outs stand apart in the source and are kept apart here.

What was measured:
Aβ42 oligomers = biological target: T1, Aβ42 oligomers (Homo sapiens, UniProt P05067); assay: Ca2+ influx assay (lipid vesicle disruption); format: biochemical; details: 2 μM Aβ42; 5-fold excess added at 0 h; measured at 2 h (half-time)
T1 construct: made in house; host or cells: E. coli BL21 Gold (DE3)
Experimental: Single vesicles tethered to PLL-PEG coated borosilicate glass coverslides (VWR International, 22×22 mm, product number 63 1-0122) were placed on an oil immersion objective mounted on an inverted Olympus IX-71 microscope. Each coverslide was affixed at Frame-Seal incubation chambers and was incubated with 50 μL of HEPES buffer of pH 6.5. Just before the imaging, the HEPES buffer was replaced with 50 μL Ca^2+ containing buffer solution L-15. 16 (4×4) images of the coverslide were recorded under three different conditions (background, in the presence of Aβ42 and after addition of ionomycin (Cambridge Bioscience Ltd, Cambridge, UK), respectively). The distance between each field of view was set to 100 μm, and was automated (bean-shell script, Micromanager) to avoid any user bias. After each measurement the script allowed the stage (Prior H117, Rockland, Mass., USA) to move the field of view back to the start position such that identical fields of view could be acquired for the three different conditions. Images of the background were acquired in the presence of L15 buffer. For each field of view 50 images were taken with an exposure time of 50 ms. […] The recorded images were analysed using ImageJ to determine the fluorescence intensity of each spot under the three different conditions in the presence of an aggregation mixture incubated with and without Netoglitazone.

[1] = tested on: Aβ3-42::GFPMuscular worms (CL2331); assay: Automated motility assay in Aβ3-42::GFPMuscular worms; format: in vivo, C. elegans; details: vs untreated worms
Experimental: CL2331; dvIs37 [myo-3p::GFP::A-Beta (3-42)+rol-6(su1006)] (Aβ3-42::GFPMuscular worms). Maintain at 16C. Roller. Diffuse and aggregated GFP expression in body wall muscle. Low brood size. Sicker at higher temperatures. (C. D. Link et al., The β amyloid peptide can act as a modular aggregation domain. Neurobiol. Dis. 32, 420-425 (2008)); and
Briefly, Netoglitazone stocks (5 mM in 100% DMSO) were used at an appropriate concentration to seed 9-cm NGM plates. Plates were then placed in a laminar flow hood at room temperature (22° C.) for up to 4 hours to dry. […]
All C. elegans populations were cultured at 20° C. and developmentally synchronized from a 4 h egg-lay. At 64-72 h post-egg-lay (time zero), individuals were transferred to FUDR plates, and body movements were assessed over the times indicated. At different ages, the animals were washed off the plates with M9 buffer and spread over an OP-50 unseeded 9 cm plate, after which their movements were recorded at 20 fps using a recently developed microscopic procedure (M. Perni et al., Massively parallel C. elegans tracking provides multi-dimensional fingerprints for phenotypic discovery. J. Neurosci. Methods. 306, 57-67 (2018)) for 1 min. Up to 600 animals were counted in each experiment in duplicate unless stated otherwise. […]

[2] = Brain microdialysis time course study (striatum); format: in vivo, male C57BL/6 mice; details: 15 mg/kg po; for Netoglitazone (ng/ml) in microdialysate / Netoglitazone (ng/ml) corrected for recovery: striatum; for Netoglitazone (ng/ml) corrected for recovery: recovery 0.11; for concentration at 6 h: terminal sample shortly after 6 hours
Experimental: To further assess the free drug exposure in the CNS following dosing of Netoglitazone an in vivo surgical microdialysis time course study was performed. Microdialysis is a minimally-invasive sampling technique that is used for continuous measurement of free, unbound analyte concentrations in the extracellular fluid of virtually any tissue (e.g. ISF in the brain). The microdialysis technique requires the insertion of a small microdialysis catheter (also referred to as microdialysis probe) into the tissue of interest. The microdialysis probe is designed to mimic a blood capillary and consists of a shaft with a semipermeable hollow fiber membrane at its tip, which is connected to inlet and outlet tubing. The probe is continuously perfused with an aqueous solution (perfusate) that closely resembles the (ionic) composition of the surrounding tissue fluid at a low flow rate of approximately 0.1-5 μL/min. Once inserted into the tissue or (body)fluid of interest, small solutes can cross the semipermeable membrane by passive diffusion. The direction of the analyte flow is determined by the respective concentration gradient and allows the usage of microdialysis probes as sampling as well as delivery tools. The solution leaving the probe (dialysate) is collected at certain time intervals for analysis. It is widely recognised as the ‘gold standard’ technique for measuring free drug levels in the CNS. Briefly, 3 male C57BL/6 mice (18 weeks old) were surgically prepared with one cannula in the brain to allow for microdialysis sampling from the striatum. Animals were allowed one day to recover and then habituated to the microdialysis cages overnight. On the study day, a microdialysis probe was inserted through the implanted cannula. […] At the end of the experiment animals were anaesthetised and terminal blood and brain samples collected.

T1 sequence (P05067 671-713): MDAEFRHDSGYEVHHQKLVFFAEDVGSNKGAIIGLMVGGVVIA

In the case of O=C1NC(=O)C(Cc2ccc3cc(OCc4ccccc4F)ccc3c2)S1 (stereo not shown) [Netoglitazone], the “Protection against lipid vesicle disruption by Aβ42 oligomers (Ca2+ influx)” value (Aβ42 oligomers) was “protected against the neurotoxic species-induced vesicle disruption; also recorded: decreased substantially the toxic effect”, the “Motility of Aβ3-42::GFPMuscular worms” value [1] was “significantly improves the motility of Aβ3-42::GFPMuscular worms” and the “Crossing of the blood-brain barrier after oral administration” value [2] was “readily crosses the blood-brain barrier”. For the same molecule, the “First microdialysate fraction in which compound could be detected” value ([2]; post administration) was 30 to 60 min, the “Netoglitazone (ng/ml) in microdialysate” value ([2]; 0-30 min after dose) was “<LLOQ” and the “Netoglitazone (ng/ml) in microdialysate” value ([2]; 30-60 min after dose) was 0.4 ng/mL. For the same molecule, the “Netoglitazone (ng/ml) in microdialysate” value ([2]; 60-90 min after dose) was 0.5 ng/mL, the “Netoglitazone (ng/ml) in microdialysate” value ([2]; 90-120 min after dose) was 0.7 ng/mL and the “Netoglitazone (ng/ml) in microdialysate” value ([2]; 120-150 min after dose) was 0.9 ng/mL. For the same molecule, the “Netoglitazone (ng/ml) in microdialysate” value ([2]; 150-180 min after dose) was 1.1 ng/mL, the “Netoglitazone (ng/ml) in microdialysate” value ([2]; 180-210 min after dose) was 1.3 ng/mL and the “Netoglitazone (ng/ml) in microdialysate” value ([2]; 210-240 min after dose) was 1.5 ng/mL. The “Netoglitazone (ng/ml) in microdialysate” value ([2]; 240-270 min after dose) was 1.9 ng/mL, the “Netoglitazone (ng/ml) in microdialysate” value ([2]; 270-300 min after dose) was 2.8 ng/mL and the “Netoglitazone (ng/ml) in microdialysate” value ([2]; 300-330 min after dose) was 3.3 ng/mL. The “Netoglitazone (ng/ml) in microdialysate” value ([2]; 330-360 min after dose) was 3.6 ng/mL, the “Netoglitazone (ng/ml) corrected for recovery” value (“Netoglitazone … for recovery” below) ([2]; 0-30 min after dose) was “<LLOQ” and the “Netoglitazone … for recovery” value ([2]; 30-60 min after dose) was 3.6 ng/mL. For the same molecule, the “Netoglitazone … for recovery” value ([2]; 60-90 min after dose) was 4.5 ng/mL, the “Netoglitazone … for recovery” value ([2]; 90-120 min after dose) was 6.4 ng/mL and the “Netoglitazone … for recovery” value ([2]; 120-150 min after dose) was 8.2 ng/mL. For the same molecule, the “Netoglitazone … for recovery” value ([2]; 150-180 min after dose) was 10.0 ng/mL, the “Netoglitazone … for recovery” value ([2]; 180-210 min after dose) was 11.8 ng/mL and the “Netoglitazone … for recovery” value ([2]; 210-240 min after dose) was 13.6 ng/mL. For the same molecule, the “Netoglitazone … for recovery” value ([2]; 240-270 min after dose) was 17.3 ng/mL, the “Netoglitazone … for recovery” value ([2]; 270-300 min after dose) was 25.5 ng/mL and the “Netoglitazone … for recovery” value ([2]; 300-330 min after dose) was 30.0 ng/mL. The “Netoglitazone … for recovery” value ([2]; 330-360 min after dose) was 32.7 ng/mL, the Kp at 6 h ([2]; male, C57BL/6, mouse, brain / plasma, terminal samples shortly after 6 hours, read-out: Brain:plasma ratio) was 0.8 and the concentration at 6 h ([2]; male, C57BL/6, mouse, plasma, read-out: Concentration in plasma) was 13300 ng/mL. The concentration at 6 h ([2]; male, C57BL/6, mouse, whole brain, read-out: Concentration in brain) was 10300 ng/g.
